Reference: patent publication US20180141939A1, “SOLID FORMS OF A BET INHIBITOR” (Gilead Sciences, Inc., priority 2016, published 2018)
Converted amounts (≈) assume the structure as drawn.

Assays:
Format in all cases: physicochemical
[1] = Ionization constants (pKa); conditions: multiple ionization constants; read-out: weak base pKa values
[2] = physchem
[3] = Chemical stability in aqueous solutions as a function of pH and temperature; conditions: for degradation in aqueous solution: about 20 weeks
Procedure: (FIG. 88(a)), or about 40° C. (FIG. 88(b)) over a period of about 20 weeks.

[4] = Susceptibility to oxidation in solution as a function of pH; conditions: about 40° C., about 14 days
Text: In the presence of iron (II) ions, formation of a complex with iron is observed at high pH (FIG. 90). This complex can be reversed to yield Compound I by addition of a strong acid.

[5] = Dynamic vapor sorption (DVS) moisture uptake; conditions: classification in words
[6] = Relative stability of solid forms (competitive slurries); conditions: MeOH/IPA, MeOH/EtOAc or MeOH/IPAc, overnight slurry at RT
[7] = increased degradation at higher pH

| pKa [1] | solubility ([2]; pH 2.4, aqueous buffer) | solubility ([2]; pH 8, aqueous buffer) | degradation in aqueous solution ([3]; about pH 1 to about pH 11, about 25° C.) | degradation in aqueous solution ([3]; about pH 1 to about pH 11, about 40° C.) | degradation in aqueous solution ([3]; about pH 1 to about pH 11, about 60° C., exception pH 5 (small amount of aluminum complex)) | degradation in solution containing polysorbate 80 [4] | degradation in solution containing radical initiator [4] | degradation in solution containing hydrogen peroxide [4, 7] | degradation in solution containing iron (II) ions [4, 7] | hygroscopicity (DVS analysis) [5] | SMILES | susceptibility to acid- or base-catalyzed degradation ([3]; aqueous solutions as a function of pH and temperature) | relative stability in competitive slurries with Compound I phosphate Form I [6] |
| --- | --- | --- | --- | --- | --- | --- | --- | --- | --- | --- | --- | --- | --- |
| 2.9 | > 100000 µg/mL | 9.2 µg/mL (≈ 21 µM) | no significant degradation | no significant degradation | no significant degradation | No significant degradation | No significant degradation | loss of Compound I | loss of Compound I | – | Cc1noc(C)c1-c1cc(C(O)(c2ccccn2)c2ccccn2)c2nc(C3CC3)[nH]c2c1 [Compound I, (2-cyclopropyl-6-(3,5-dimethylisoxazol-4-yl)-1H-benzo[d]imidazol-4-yl)di(pyridin-2-yl)methanol] | not susceptible to acid- or base-catalyzed degradation | – |
| – | – | – | – | – | – | – | – | – | – | moderately hygroscopic | Cc1noc(C)c1-c1cc(C(O)(c2ccccn2)c2ccccn2)c2nc(C3CC3)[nH]c2c1 [Compound I phosphate Form II, (2-cyclopropyl-6-(3,5-dimethylisoxazol-4-yl)-1H-benzo[d]imidazol-4-yl)di(pyridin-2-yl)methanol] | – | less stable than Compound I phosphate Form I at ambient conditions |
